Measured values taken from patent publication US8952024B2, “Herbicidal pyrimidone derivatives” (E I du Pont de Nemours and Company, priority 2009, dated 2015).

Legend:
Assay type in all cases: in vivo
[1] = system: barnyardgrass (Echinochloa crus-galli); test: Test A pre-/postemergence plant response
Excerpt: (§1) Seeds of barnyardgrass (Echinochloa crus-galli), large crabgrass (Digitaria sanguinalis), giant foxtail (Setaria faberii), morningglory (Ipomoea spp.), pigweed (Amaranthus retroflexus), velvetleaf (Abutilon theophrasti), wheat (Triticum aestivum) and corn (Zea mays) were planted into a blend of loam soil and sand and treated preemergence with a directed soil spray using test chemicals formulated in a non-phytotoxic solvent mixture which included a surfactant. At the same time these species were also treated with postemergence applications of test compounds formulated in the same manner.
(§2) Plants ranged in height from two to ten cm and were in the one- to two-leaf stage for the postemergence treatment. Treated plants and untreated controls were maintained in a greenhouse for approximately ten days, after which time all treated plants were compared to untreated controls and visually evaluated for injury. Plant response ratings, summarized in Table A, are based on a 0 to 100 scale where 0 is no effect and 100 is complete control. A dash (-) response means no test result.

corn (Zea mays) = test: Test A pre-/postemergence plant response
Excerpt: as §1, §2

[2] = system: giant foxtail (Setaria faberii); test: Test A pre-/postemergence plant response
Excerpt: as §1, §2

[3] = system: large crabgrass (Digitaria sanguinalis); test: Test A pre-/postemergence plant response
Excerpt: as §1, §2

[4] = system: morningglory (Ipomoea spp.); test: Test A pre-/postemergence plant response
Excerpt: as §1, §2

[5] = system: pigweed (Amaranthus retroflexus); test: Test A pre-/postemergence plant response
Excerpt: as §1, §2

[6] = system: velvetleaf (Abutilon theophrasti); test: Test A pre-/postemergence plant response
Excerpt: as §1, §2

[7] = system: wheat (Triticum aestivum); test: Test A pre-/postemergence plant response
Excerpt: as §1, §2

[8] = system: barnyardgrass (Echinochloa crus-galli); test: Test B flooded paddy test; conditions: for Plant response rating, Flood, Barnyardgrass: 250 g ai/ha, flooded paddy test, visual rating on 0 to 100 scale (0 no effect, 100 complete control) after 13 to 15 days; for Plant response rating, Barnyardgrass: Flood (flooded paddy test), 13 to 15 days; for Barnyardgrass plant response rating: Flood, 31 g ai/ha, scale 0 to 100 (0 no effect, 100 complete control)
Method in brief: (§3)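 Greenhouse-held for 13 to 15 days, treated pots were compared visually with controls and scored 0–100 (0, no effect). Treatment had been made into paddy water kept at 3 cm above the soil, with plants at the 2-leaf stage.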

[9] = system: ducksalad (Heteranthera limosa); test: Test B flooded paddy test; conditions: for Plant response rating, Flood, Ducksalad: 250 g ai/ha, flooded paddy test, visual rating on 0 to 100 scale (0 no effect, 100 complete control) after 13 to 15 days; for Plant response rating, Ducksalad: Flood (flooded paddy test), 13 to 15 days; for Ducksalad plant response rating: Flood, 31 g ai/ha, scale 0 to 100 (0 no effect, 100 complete control)
Method in brief: as §3

rice (Oryza sativa) = test: Test B flooded paddy test; conditions: for Plant response rating, Flood, Rice: 250 g ai/ha, flooded paddy test, visual rating on 0 to 100 scale (0 no effect, 100 complete control) after 13 to 15 days; for Plant response rating, Rice: Flood (flooded paddy test), 13 to 15 days; for Rice plant response rating: Flood, 31 g ai/ha, scale 0 to 100 (0 no effect, 100 complete control)
Method in brief: as §3

[10] = system: umbrella sedge (Cyperus difformis); test: Test B flooded paddy test; conditions: for Plant response rating, Flood, Sedge, Umbrella: 250 g ai/ha, flooded paddy test, visual rating on 0 to 100 scale (0 no effect, 100 complete control) after 13 to 15 days; for Plant response rating, Sedge, Umbrella: Flood (flooded paddy test), 13 to 15 days; for Sedge, Umbrella plant response rating: Flood, 31 g ai/ha, scale 0 to 100 (0 no effect, 100 complete control)
Method in brief: as §3

[11] = Postemergence, 125 g ai/ha, 0 to 100 scale where 0 is no effect and 100 is complete control
[12] = Postemergence, 500 g ai/ha, visual injury, 0 to 100 scale (0 no effect, 100 complete control), approx. ten days
[13] = Preemergence, 125 g ai/ha, 0 to 100 scale, 0 = no effect, 100 = complete control
[14] = Preemergence, 500 g ai/ha, 0 to 100 scale, 0 = no effect, 100 = complete control
[15] = 62 g ai/ha, scale of 0 to 100 where 0 is no effect and 100 is complete control
[16] = 125 g ai/ha, scale 0 to 100, 0 is no effect, 100 is complete control
[17] = Postemergence, 500 g ai/ha, 0 to 100 scale, 0 = no effect, 100 = complete control, approx. ten days
[18] = Preemergence, 500 g ai/ha, visual injury, 0 to 100 scale (0 no effect, 100 complete control), approx. ten days

Cc1ccccc1-n1c(-c2cccc(Br)c2)ncc(C(=O)C2=C(O)CCCC2=O)c1=O [Compound 209]
Plant response rating, Barnyardgrass [1, 11]: 80
Barnyardgrass plant response rating [1, 12]: 100
Plant response rating, Barnyardgrass [1, 13]: 0
Plant response rating, Barnyardgrass [1, 14]: 50
Plant response rating, Corn (corn (Zea mays); [11]): 0
Corn plant response rating (corn (Zea mays); [12]): 40
Plant response rating, Corn (corn (Zea mays); [13]): 0
Plant response rating, Corn (corn (Zea mays); [14]): 20
Plant response rating, Foxtail, Giant [2, 11]: 60
Foxtail, Giant plant response rating [2, 12]: 100
Plant response rating, Foxtail, Giant [2, 13]: 10
Plant response rating, Foxtail, Giant [2, 14]: 60
Plant response rating, Crabgrass, Large [3, 11]: 50
Crabgrass, Large plant response rating [3, 12]: 100
Plant response rating, Crabgrass, Large [3, 13]: 20
Plant response rating, Crabgrass, Large [3, 14]: 70
Plant response rating, Morningglory [4, 11]: 30
Morningglory plant response rating [4, 12]: 100
Plant response rating, Morningglory [4, 13]: 0
Plant response rating, Morningglory [4, 14]: 30
Plant response rating, Pigweed [5, 11]: 60
Pigweed plant response rating [5, 12]: 100
Plant response rating, Pigweed [5, 13]: 0
Plant response rating, Pigweed [5, 14]: 70
Plant response rating, Velvetleaf [6, 11]: 100
Velvetleaf plant response rating [6, 12]: 100
Plant response rating, Velvetleaf [6, 13]: 60
Plant response rating, Velvetleaf [6, 14]: 100
Plant response rating, Wheat [7, 11]: 0
Wheat plant response rating [7, 12]: 0
Plant response rating, Wheat [7, 13]: 0
Plant response rating, Wheat [7, 14]: 0
Plant response rating, Flood, Barnyardgrass [8]: 20
Plant response rating, Barnyardgrass [8, 15]: 0
Plant response rating, Barnyardgrass [8, 16]: 0
Barnyardgrass plant response rating [8]: 0
Plant response rating, Flood, Ducksalad [9]: 85
Plant response rating, Ducksalad [9, 15]: 50
Plant response rating, Ducksalad [9, 16]: 85
Ducksalad plant response rating [9]: 0
Plant response rating, Flood, Rice (rice (Oryza sativa)): 20
Plant response rating, Rice (rice (Oryza sativa); [15]): 0
Plant response rating, Rice (rice (Oryza sativa); [16]): 10
Rice plant response rating (rice (Oryza sativa)): 0
Plant response rating, Flood, Sedge, Umbrella [10]: 80
Plant response rating, Sedge, Umbrella [10, 15]: 50
Plant response rating, Sedge, Umbrella [10, 16]: 70
Sedge, Umbrella plant response rating [10]: 0

COCCn1c(-c2ccn(C)n2)ncc(C(=O)C2=C(O)CCCC2=O)c1=O [Compound 136]
Plant response rating, Barnyardgrass [1, 11]: 30
Plant response rating, Barnyardgrass [1, 17]: 80
Plant response rating, Barnyardgrass [1, 13]: 0
Plant response rating, Barnyardgrass [1, 18]: 60
Plant response rating, Corn (corn (Zea mays); [11]): 0
Plant response rating, Corn (corn (Zea mays); [17]): 0
Plant response rating, Corn (corn (Zea mays); [13]): 0
Plant response rating, Corn (corn (Zea mays); [18]): 0
Plant response rating, Foxtail, Giant [2, 11]: 30
Plant response rating, Foxtail, Giant [2, 17]: 50
Plant response rating, Foxtail, Giant [2, 13]: 0
Plant response rating, Foxtail, Giant [2, 18]: 0
Plant response rating, Crabgrass, Large [3, 11]: 80
Plant response rating, Crabgrass, Large [3, 17]: 90
Plant response rating, Crabgrass, Large [3, 13]: 20
Plant response rating, Crabgrass, Large [3, 18]: 60
Plant response rating, Morningglory [4, 11]: 100
Plant response rating, Morningglory [4, 17]: 100
Plant response rating, Morningglory [4, 13]: 30
Plant response rating, Morningglory [4, 18]: 60
Plant response rating, Pigweed [5, 11]: 80
Plant response rating, Pigweed [5, 17]: 100
Plant response rating, Pigweed [5, 13]: 80
Plant response rating, Pigweed [5, 18]: 100
Plant response rating, Velvetleaf [6, 11]: 100
Plant response rating, Velvetleaf [6, 17]: 100
Plant response rating, Velvetleaf [6, 13]: 70
Plant response rating, Velvetleaf [6, 18]: 100
Plant response rating, Wheat [7, 11]: 0
Plant response rating, Wheat [7, 17]: 0
Plant response rating, Wheat [7, 13]: 0
Plant response rating, Wheat [7, 18]: 0
Plant response rating, Flood, Barnyardgrass [8]: 25
Plant response rating, Barnyardgrass [8, 15]: 20
Plant response rating, Flood, Ducksalad [9]: 75
Plant response rating, Ducksalad [9, 15]: 55
Plant response rating, Flood, Rice (rice (Oryza sativa)): 20
Plant response rating, Rice (rice (Oryza sativa); [15]): 15
Plant response rating, Flood, Sedge, Umbrella [10]: 50
Plant response rating, Sedge, Umbrella [10, 15]: 45

CCCn1c(C2CC2)ncc(C(=O)C2=C(O)CCCC2=O)c1=O [Compound 153]
Plant response rating, Barnyardgrass [1, 11]: 80
Plant response rating, Barnyardgrass [1, 17]: 90
Plant response rating, Barnyardgrass [1, 13]: 40
Plant response rating, Barnyardgrass [1, 18]: 80
Plant response rating, Corn (corn (Zea mays); [11]): 0
Plant response rating, Corn (corn (Zea mays); [17]): 20
Plant response rating, Corn (corn (Zea mays); [13]): 20
Plant response rating, Corn (corn (Zea mays); [18]): 20
Plant response rating, Foxtail, Giant [2, 11]: 70
Plant response rating, Foxtail, Giant [2, 17]: 80
Plant response rating, Foxtail, Giant [2, 13]: 20
Plant response rating, Foxtail, Giant [2, 18]: 70
Plant response rating, Crabgrass, Large [3, 11]: 90
Plant response rating, Crabgrass, Large [3, 17]: 90
Plant response rating, Crabgrass, Large [3, 13]: 80
Plant response rating, Crabgrass, Large [3, 18]: 100
Plant response rating, Morningglory [4, 11]: 50
Plant response rating, Morningglory [4, 17]: 60
Plant response rating, Morningglory [4, 13]: 20
Plant response rating, Morningglory [4, 18]: 70
Plant response rating, Pigweed [5, 11]: 100
Plant response rating, Pigweed [5, 17]: 100
Plant response rating, Pigweed [5, 13]: 100
Plant response rating, Pigweed [5, 18]: 100
Plant response rating, Velvetleaf [6, 11]: 100
Plant response rating, Velvetleaf [6, 17]: 100
Plant response rating, Velvetleaf [6, 13]: 100
Plant response rating, Velvetleaf [6, 14]: 100
Plant response rating, Wheat [7, 11]: 0
Plant response rating, Wheat [7, 17]: 10
Plant response rating, Wheat [7, 13]: 0
Plant response rating, Wheat [7, 14]: 20
Plant response rating, Flood, Barnyardgrass [8]: 45
Plant response rating, Barnyardgrass [8, 15]: 0
Plant response rating, Barnyardgrass [8, 16]: 35
Barnyardgrass plant response rating [8]: 0
Plant response rating, Flood, Ducksalad [9]: 100
Plant response rating, Ducksalad [9, 15]: 65
Plant response rating, Ducksalad [9, 16]: 100
Ducksalad plant response rating [9]: 0
Plant response rating, Flood, Rice (rice (Oryza sativa)): 65
Plant response rating, Rice (rice (Oryza sativa); [15]): 35
Plant response rating, Rice (rice (Oryza sativa); [16]): 55
Rice plant response rating (rice (Oryza sativa)): 35
Plant response rating, Flood, Sedge, Umbrella [10]: 95
Plant response rating, Sedge, Umbrella [10, 15]: 0
Plant response rating, Sedge, Umbrella [10, 16]: 80
Sedge, Umbrella plant response rating [10]: 0

CCCn1c(-c2cccc(C)c2)ncc(C(=O)C2=C(O)CCCC2=O)c1=O [Compound 172]
Plant response rating, Barnyardgrass [1, 11]: 90
Barnyardgrass plant response rating [1, 12]: 90
Plant response rating, Barnyardgrass [1, 13]: 10
Plant response rating, Barnyardgrass [1, 14]: 80
Plant response rating, Corn (corn (Zea mays); [11]): 20
Corn plant response rating (corn (Zea mays); [12]): 30
Plant response rating, Corn (corn (Zea mays); [13]): 0
Plant response rating, Corn (corn (Zea mays); [14]): 0
Plant response rating, Foxtail, Giant [2, 11]: 60
Foxtail, Giant plant response rating [2, 12]: 90
Plant response rating, Foxtail, Giant [2, 13]: 10
Plant response rating, Foxtail, Giant [2, 14]: 60
Plant response rating, Crabgrass, Large [3, 11]: 60
Crabgrass, Large plant response rating [3, 12]: 80
Plant response rating, Crabgrass, Large [3, 13]: 10
Plant response rating, Crabgrass, Large [3, 14]: 90
Plant response rating, Morningglory [4, 11]: 90
Morningglory plant response rating [4, 12]: 100
Plant response rating, Morningglory [4, 13]: 0
Plant response rating, Morningglory [4, 14]: 50
Plant response rating, Pigweed [5, 11]: 100
Pigweed plant response rating [5, 12]: 100
Plant response rating, Pigweed [5, 13]: 10
Plant response rating, Pigweed [5, 14]: 100
Plant response rating, Velvetleaf [6, 11]: 100
Velvetleaf plant response rating [6, 12]: 100
Plant response rating, Velvetleaf [6, 13]: 50
Plant response rating, Velvetleaf [6, 14]: 80
Plant response rating, Wheat [7, 11]: 0
Wheat plant response rating [7, 12]: 20
Plant response rating, Wheat [7, 13]: 0
Plant response rating, Wheat [7, 14]: 0
Plant response rating, Barnyardgrass [8, 16]: 20
Barnyardgrass plant response rating [8]: 0
Plant response rating, Ducksalad [9, 16]: 60
Ducksalad plant response rating [9]: 20
Plant response rating, Rice (rice (Oryza sativa); [16]): 0
Rice plant response rating (rice (Oryza sativa)): 0
Plant response rating, Sedge, Umbrella [10, 16]: 75
Sedge, Umbrella plant response rating [10]: 0
